This is an account of results in patent US20250289789A1, “REVERSIBLE LYSINE COVALENT MODIFIERS OF CDK2 AND USES THEREOF” (Terremoto Biosciences, Inc., priority 2023, published 2025).

The structures appear in SMILES notation.

What all share (assay type): cell-based
In assay [1] the test system is Phospho-Rb Ser807/811 in OVCAR3 cells. Briefly: OVCAR3 Phospho-Rb Ser807/811 HTRF assay. Conditions: Homo sapiens, OVCAR-3, 1 h, OVCAR3 cells, Phospho-Rb Ser807/811 HTRF, 1 hour incubation; read-out: pRb-OVCAR3 IC50. As to the method:
Cells were trypsinized and resuspended in 1 mM hydroxyurea (Sigma; H8627), 90% RPMI and 10% fetal bovine serum. […] Dose response curve normalized to DMSO control was plotted using four-parameter logistic model for IC50 calculation.
(In general: Time-resolved FRET reads energy transfer from a long-lived donor to a nearby acceptor.)

Assay [2] deals with T1, CDK4-NanoLuc fusion with CCND1 in 293T or 293 cells (Homo sapiens, UniProt P11802).
T1 construct: host or cells: 293T (ATCC CRL-3216) or 293 (ATCC CRL-1573)
T1 sequence (P11802 whole entry, the tested form may be a part): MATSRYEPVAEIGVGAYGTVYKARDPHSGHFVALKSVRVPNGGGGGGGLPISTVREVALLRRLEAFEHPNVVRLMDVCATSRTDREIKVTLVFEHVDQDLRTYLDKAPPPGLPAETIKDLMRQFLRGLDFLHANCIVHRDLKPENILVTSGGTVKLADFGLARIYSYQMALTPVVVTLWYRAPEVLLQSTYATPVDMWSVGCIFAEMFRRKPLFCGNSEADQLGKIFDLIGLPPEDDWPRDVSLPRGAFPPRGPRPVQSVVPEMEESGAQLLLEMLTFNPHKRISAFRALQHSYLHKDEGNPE
T1 sequence (P24385 whole entry partner, the tested form may be a part): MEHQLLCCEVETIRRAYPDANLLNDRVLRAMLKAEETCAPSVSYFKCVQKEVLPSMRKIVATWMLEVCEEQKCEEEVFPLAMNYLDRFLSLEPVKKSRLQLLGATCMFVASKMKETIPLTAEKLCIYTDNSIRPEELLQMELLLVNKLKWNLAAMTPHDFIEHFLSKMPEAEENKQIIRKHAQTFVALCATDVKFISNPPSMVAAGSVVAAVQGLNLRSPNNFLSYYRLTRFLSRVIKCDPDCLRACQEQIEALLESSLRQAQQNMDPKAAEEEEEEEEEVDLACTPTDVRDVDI
Briefly: NanoBRET Target Engagement (TE) Intracellular Kinase Assay, CDK4/CCND1. Conditions: NanoBRET TE intracellular kinase assay, 2-hour incubation, read-out: NanoBRET-CDK4/D1 IC50. In general terms: BRET reads energy transfer from a luciferase to a nearby fluorophore.

Assay [3] addresses T2, CDK2-NanoLuc fusion with CCNE1 in 293T or 293 cells (Homo sapiens, UniProt P24941).
T2 construct: host or cells: 293T (ATCC CRL-3216) or 293 (ATCC CRL-1573)
Briefly: NanoBRET Target Engagement (TE) Intracellular Kinase Assay, CDK2/CCNE1. Conditions: NanoBRET TE intracellular kinase assay, 2-hour incubation, read-out: NanoBRET-CDK2/E1 IC50.

The target of assay [4] is T3, CDK1-NanoLuc fusion with CCNB1 in 293T or 293 cells (Homo sapiens, UniProt P06493).
T3 construct: host or cells: 293T (ATCC CRL-3216) or 293 (ATCC CRL-1573)
T3 sequence (P06493 whole entry, the tested form may be a part): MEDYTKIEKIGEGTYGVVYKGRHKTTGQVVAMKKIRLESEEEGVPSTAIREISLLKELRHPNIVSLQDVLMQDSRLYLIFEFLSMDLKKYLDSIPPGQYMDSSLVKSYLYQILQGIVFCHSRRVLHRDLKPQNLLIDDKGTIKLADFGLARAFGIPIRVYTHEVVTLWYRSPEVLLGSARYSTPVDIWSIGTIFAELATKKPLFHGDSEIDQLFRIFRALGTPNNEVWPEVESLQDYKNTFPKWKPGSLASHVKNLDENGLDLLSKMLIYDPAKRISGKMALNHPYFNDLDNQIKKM
T3 sequence (P14635 whole entry partner, the tested form may be a part): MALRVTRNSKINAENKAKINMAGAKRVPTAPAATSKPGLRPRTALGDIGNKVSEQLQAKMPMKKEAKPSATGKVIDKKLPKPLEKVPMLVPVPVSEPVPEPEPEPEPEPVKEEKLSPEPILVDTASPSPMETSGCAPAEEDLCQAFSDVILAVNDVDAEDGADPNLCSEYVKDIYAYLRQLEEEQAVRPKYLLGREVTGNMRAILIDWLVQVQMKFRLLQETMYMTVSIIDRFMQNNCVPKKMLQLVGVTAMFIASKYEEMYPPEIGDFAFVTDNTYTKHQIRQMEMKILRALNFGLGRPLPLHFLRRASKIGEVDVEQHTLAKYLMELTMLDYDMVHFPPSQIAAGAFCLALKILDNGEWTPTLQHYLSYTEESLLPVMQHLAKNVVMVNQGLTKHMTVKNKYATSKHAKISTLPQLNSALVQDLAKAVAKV
Briefly: NanoBRET Target Engagement (TE) Intracellular Kinase Assay, CDK1/CCNB1. The conditions noted are these: NanoBRET TE intracellular kinase assay, 2-hour incubation, read-out: NanoBRET-CDK1/B1 IC50. As to the method:
Inhibitory effects of compounds were measured in NanoBRET TE Intracellular Kinase Assay. 293T (ATCC; CRL-3216) or 293 (ATCC; CRL-1573) cell lines were maintained in 90% DMEM and 10% fetal bovine serum at 37° C., 5% CO2, and 95% relative humidity. Cells were trypsinized and resuspended in assay media (99% Opti-MEM I Reduced Serum Medium, no phenol red, and 1% fetal bovine serum). Cells were co-transfected with 1 μg/mL of CDK-NanoLuc Fusion Vector (Promega; NV2701 for CDK1, NV2781 for CDK2, NV2811 for CDK4, NV2841 for CDK6) and 1 μg/mL of the corresponding Cyclin Expression Vector (Promega; NV2601 for CCNB1, NV2641 for CCNE1, NV2621 for CCND1, NV2631 for CCND3) using FuGENE HD Transfection Reagent (Promega; E2311). 40 uL/well of cells with transfection mixture were seeded in 384-well plates at 1.25×10^5 to 2×10^5 cells/mL and incubated for 24 hours at 37° C., 5% CO2, and 95% relative humidity. On the next day, 100 nL of 100 μM NanoBRET Tracer K-10 (Promega; N2640) and 40 nL of 1000× test compounds prepared in DMSO were added to the cells in each well of 384-well plates for a 2-hour incubation at 37° C., 5% CO2, and 95% relative humidity. 20 uL/well of 3× Intracellular TE Nano-Glo Substrate/Inhibitor (Promega; N2162) were added to 384-well plates and incubated for 3 minutes at room temperature. NanoBRET signals (donor emission wavelength at 450 nm, acceptor emission wavelength at 610 nm) were measured using Envision plate reader (PerkinElmer). NanoBRET ratio was calculated by: BRET Ratio=raw signal for acceptor/raw signal for donor. Dose response curve normalized to DMSO control was plotted using four-parameter logistic model for IC50 calculation.

With `CC(=O)Nc1cc(C(=O)Nc2cc([C@H]3CC[C@@H](OC(=O)NC(C)C)C3)[nH]n2)ccc1C=O` [Compound 37, (1R,3S)-3-(3-(3-acetamido-4-formylbenzamido)-1H-pyrazol-5-yl)cyclopentyl isopropylcarbamate], the IC50 turned out to be 0.344 µM in assay [1], 0.128 µM in assay [2], 0.0156 µM in assay [3] and 0.176 µM in assay [4].
In the same order, the values of `CC(=O)Nc1ccc(C(=O)Nc2cc([C@H]3CC[C@@H](OC(=O)NC(C)C)C3)[nH]n2)cc1C=O` [Compound 38, (1R,3S)-3-[5-(4-acetamido-3-formylbenzamido)-2H-pyrazol-3-yl]cyclopentyl N-isopropylcarbamate] are 0.542 µM, 0.576 µM, 0.0106 µM and 0.264 µM.
In the same order, the values of `CC(C)NC(=O)O[C@@H]1CC[C@H](c2cc(NC(=O)c3ccc(C=O)c4[nH]ncc34)n[nH]2)C1` [Compound 39, (1R,3S)-3-[5-(7-formyl-1H-indazole-4-amido)-2H-pyrazol-3-yl]cyclopentyl N-isopropylcarbamate] are 1.13 µM, 0.474 µM, 0.0247 µM and 0.351 µM.
As for `CC(C)NC(=O)O[C@@H]1CC[C@H](c2cc(NC(=O)c3cc(C=O)c4[nH]ncc4c3)n[nH]2)C1` [Compound 40, (1R,3S)-3-(3-(7-formyl-1H-indazole-5-carboxamido)-1H-pyrazol-5-yl)cyclopentyl isopropylcarbamate], the IC50 came to 0.796 µM in assay [1], 1.46 µM in assay [2], 0.0244 µM in assay [3] and 0.275 µM in assay [4].
Taken in the same sequence, the figures for `CC(C)NC(=O)O[C@@H]1CC[C@H](c2cc(NC(=O)c3cc(-c4cccc(NS(C)(=O)=O)c4C=O)nn3C)n[nH]2)C1` [Compound 41, (1R,3S)-3-{5-[5-(2-formyl-3-methanesulfonamidophenyl)-2-methylpyrazole-3-amido]-2H-pyrazol-3-yl}cyclopentyl N-isopropylcarbamate; trifluoroacetic acid] were 0.272 µM, 3.06 µM, 0.00532 µM and 0.0205 µM.
Taken in the same sequence, the figures for `CC(C)NC(=O)O[C@@H]1CC[C@H](c2cc(NC(=O)c3cc(-c4cc(F)cc(O)c4C=O)nn3C)n[nH]2)C1` [Compound 42, (1R,3S)-3-{5-[5-(5-fluoro-2-formyl-3-hydroxyphenyl)-2-methylpyrazole-3-amido]-2H-pyrazol-3-yl}cyclopentyl N-isopropylcarbamate; trifluoroacetic acid] were 0.176 µM, 2.68 µM, 0.0055 µM and 0.0106 µM.
In the same order, the values of `CC(C)NC(=O)O[C@@H]1CC[C@H](c2cc(NC(=O)COc3ccc(F)c(O)c3C=O)n[nH]2)C1` [Compound 43, (1R,3S)-3-{5-[2-(4-fluoro-2-formyl-3-hydroxyphenoxy)acetamido]-2H-pyrazol-3-yl}cyclopentyl N-isopropylcarbamate; trifluoroacetic acid] are 0.212 µM, above 10 µM, 0.0272 µM and 0.0512 µM.
For `CC(C)NC(=O)O[C@@H]1CC[C@H](c2cc(NC(=O)c3cc(-c4cnccc4C=O)nn3C)n[nH]2)C1` [Compound 44, (1R,3S)-3-(3-(3-(4-formylpyridin-3-yl)-1-methyl-1H-pyrazole-5-carboxamido)-1H-pyrazol-5-yl)cyclopentyl isopropylcarbamate; trifluoroacetic acid], the IC50 was 0.485 µM in assay [1], 1.55 µM in assay [2], 0.00637 µM in assay [3] and 0.168 µM in assay [4].
Take `CC(C)NC(=O)O[C@@H]1CC[C@H](c2cc(NC(=O)COc3cc(C#N)cc(O)c3C=O)n[nH]2)C1` [Compound 47, 1R,3S)-3-(3-(2-(5-cyano-2-formyl-3-hydroxyphenoxy)acetamido)-1H-pyrazol-5-yl)cyclopentyl isopropylcarbamate]: the IC50 is 1.17 µM in assay [1], 9.43 µM in assay [2], 0.0989 µM in assay [3] and 0.224 µM in assay [4].
Taken in the same sequence, the figures for `COc1cc(O)c(C=O)c(-c2cc(C(=O)Nc3cc([C@H]4CC[C@@H](OC(=O)NC(C)C)C4)[nH]n3)n(C)n2)c1` [Compound 48, (1R,3S)-3-{5-[5-(2-formyl-3-hydroxy-5-methoxyphenyl)-2-methylpyrazole-3-amido]-2H-pyrazol-3-yl}cyclopentyl N-isopropylcarbamate; trifluoroacetic acid] were 0.125 µM, 0.848 µM, 0.00228 µM and 0.0108 µM.
Taken in the same sequence, the figures for `Cc1nc(-c2cccc(O)c2C=O)sc1C(=O)Nc1cc([C@H]2CC[C@@H](OC(=O)NC(C)C)C2)[nH]n1` [Compound 53, (1R,3S)-3-(3-(2-(2-formyl-3-hydroxyphenyl)-4-methylthiazole-5-carboxamido)-1H-pyrazol-5-yl)cyclopentyl isopropylcarbamate] were 0.361 µM, 3.66 µM, 0.00939 µM and 0.0217 µM.
In the same order, the values of `CC(C)NC(=O)O[C@@H]1CC[C@H](c2cc(NC(=O)c3cn(-c4cccc(O)c4C=O)nc3C(F)F)n[nH]2)C1` [Compound 54, (1R,3S)-3-(3-(3-(difluoromethyl)-1-(2-formyl-3-hydroxyphenyl)-1H-pyrazole-4-carboxamido)-1H-pyrazol-5-yl)cyclopentyl isopropylcarbamate] are 1.69 µM, above 10 µM, 0.0234 µM and 0.175 µM.
With `CC(C)NC(=O)O[C@@H]1CC[C@H](c2cc(NC(=O)c3cnc(-c4cccc(O)c4C=O)o3)n[nH]2)C1` [Compound 55, (1R,3S)-3-{5-[2-(2-formyl-3-hydroxyphenyl)-1,3-oxazole-5-amido]-2H-pyrazol-3-yl}cyclopentyl N-isopropylcarbamat], the IC50 in assay [1] was 1.43 µM; in assay [2] it was above 10 µM; in assay [3], 0.0219 µM; in assay [4], 0.0699 µM.
Taken in the same sequence, the figures for `Cc1ccc(OCC(=O)Nc2cc([C@H]3CC[C@@H](OC(=O)NC(C)C)C3)[nH]n2)c(C=O)c1O` [Compound 56, (1R,3S)-3-(3-(2-(2-formyl-3-hydroxy-4-methylphenoxy)acetamido)-1H-pyrazol-5-yl)cyclopentyl isopropylcarbamate] were 0.0758 µM, above 10 µM, 0.00132 µM and 0.00483 µM.
In the same order, the values of `Cc1cc(O)c(C=O)c(OCC(=O)Nc2cc([C@H]3CC[C@@H](OC(=O)NC(C)C)C3)[nH]n2)c1` [Compound 57, (1R,3S)-3-(3-(2-(2-formyl-3-hydroxy-5-methylphenoxy)acetamido)-1H-pyrazol-5-yl)cyclopentyl isopropylcarbamate] are 0.11 µM, above 9.58 µM, 0.00306 µM and 0.0219 µM.
In the same order, the values of `CC(C)NC(=O)O[C@@H]1CC[C@H](c2cc(NC(=O)c3cc(-c4cccc(O)c4C=O)n(C)n3)n[nH]2)C1` [Compound 59, (1R,3S)-3-{5-[5-(2-formyl-3-hydroxyphenyl)-1-methylpyrazole-3-amido]-2H-pyrazol-3-yl}cyclopentyl N-isopropylcarbamate] are 2.3 µM, above 10 µM, 0.0321 µM and 0.362 µM.
On to `CCn1nc(-c2cccc(O)c2C=O)cc1C(=O)Nc1cc([C@H]2CC[C@@H](OC(=O)NC(C)C)C2)[nH]n1` [Compound 60, (1R,3S)-3-{5-[2-ethyl-5-(2-formyl-3-hydroxyphenyl)pyrazole-3-amido]-2H-pyrazol-3-yl}cyclopentyl N-isopropylcarbamate; trifluoroacetic acid], for which the IC50 amounted to 0.23 µM in assay [1], 3.63 µM in assay [2], 0.0065 µM in assay [3] and 0.0151 µM in assay [4].
